Broadly, the EC50 is the midpoint of the concentration-response curve. A word on the IC50: it is the concentration that gives 50% inhibition.

Molecules are shown by their SMILES. Calls of active or inactive are those of the source.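 Rule for the calls: active = compounds giving half or more protection of infected cells from virus-caused growth loss, again on retest; inactive = the rest.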

The test has as its system CEM cells HIV-1 protection, formazan growth assay. Kind of test: NCI AIDS Antiviral Assay. To be noted: for IC50: measured here: growth of uninfected CEM cells. The method in brief:
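Protection of CEM cells against HIV-1 was scored from cell growth (soluble formazan) across five concentrations, with parallel uninfected cells. Lack of protection may reflect toxicity.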

For the compound `c1cc2cc3c(cc2o1)OC[C@H]1c2cc4c(cc2O[C@@H]31)OCO4`, the EC50 was greater than 43.7 µM and the IC50 stood at 10.5 µM.
In the case of `O=C(/C=C/c1ccc(O)c(O)c1)OCCCOC(=O)/C=C/c1ccc(O)c(O)c1`, the EC50 was greater than 100 µM and the IC50 worked out at 13.8 µM.
Take `Cc1ccc(C)n1CCN1CCNCC1`: the EC50 was greater than 200 µM and the IC50 is 162 µM.
For `Cc1ccc(S(=O)(=O)C2=Cc3ccc(C(F)(F)F)cc3C2(O)c2cccc(C(F)(F)F)c2)cc1` (stereo unspecified), in that order: greater than 200 µM and 2.19 µM.
Take `COC(=O)C(=O)C(C#N)c1cccc2ccccc12` (stereo unspecified): the outcome was inactive.
Same read-out and setting: under `[N-]=[N+]=NC1CC(n2cc(Cc3ccccc3)c(=O)[nH]c2=O)OC1CO` (stereo unspecified) stands “inactive”.
Turning to `CCCCCCCCCCNCCSSCc1ccc(OC)cc1`, the EC50 is greater than 200 µM and the IC50 turned out to be 3.39 µM.
Take `CNS(=O)(=O)NNS(=O)(=O)c1ccc(OC)cc1`: the EC50 is greater than 617 µM and the IC50 stood at 324 µM.
For `N#CC1=CNc2sccc2S1(=O)=O`, in that order: greater than 200 µM and greater than 200 µM.
For `N#C/C(=C\c1cc(Br)cc(Br)c1O)c1ccc([N+](=O)[O-])cc1`, in that order: greater than 100 µM and 13.5 µM.
For `CCC/C(Cl)=N\OC(=O)Nc1ccc(OC(F)(F)F)cc1`, in that order: greater than 20 µM and 5.37 µM.
As for `COC1=C(c2c[nH]c3ccc(CC=C(C)C)cc23)C(=O)C(OC)=C(c2c[nH]c3ccc(CC=C(C)C)cc23)C1=O`, the EC50 is greater than 38.9 µM and the IC50 came to 2.24 µM.
For `CN(N)/N=N/c1nc[nH]c1[N+](=O)[O-]`, in that order: greater than 200 µM and 5.62 µM.
For `COC(=O)c1ccccc1NCc1cc(O)ccc1O`, in that order: greater than 200 µM and 30.9 µM.
As to `O=S(CCCl)c1c2ccccc2nc2ccccc12` (stereo unspecified), the EC50 is greater than 200 µM and the IC50 came to 30.9 µM.
Take `c1c2c(cc3c1OCO3)C(c1onc3cc4c(cc13)OCO4)=NCC2`: the result was inactive.
In the case of `N#CC(C#N)=Cc1ccc(Cl)cc1`, the EC50 is greater than 72.4 µM and the IC50 amounted to 66.1 µM.
The matching figures for `CC1=C(C(N)=O)C(c2ccncc2)C(C#N)=C2SCC(=O)N12` (stereo unspecified): greater than 200 µM and greater than 200 µM.
For `Cc1ccc(C2=C(C#N)C(=O)N3CCN=C3S2)cc1`, in that order: greater than 200 µM and greater than 100 µM.
As for `COc1c(C)c(C/C=C(\C)CC/C=C(\C)CC/C=C(\C)CC/C=C(\C)CCC=C(C)C)c(OC)c(OC)c1OC`, the EC50 was greater than 200 µM and the IC50 amounted to 31.6 µM.
The matching figures for `C=Cc1cc[n+](CCCCC[n+]2ccc(C=C)cc2)cc1`: greater than 100 µM and greater than 100 µM.
For `O=C1[C@@H](O)[C@@H]2CCCC[C@@]23CCCN13`, in that order: greater than 200 µM and greater than 200 µM.
In the case of `CC(=O)O[C@]1(C)OC(=O)[C@@H](C)N1[N+](=O)[O-]`, the outcome was inactive.
`Cc1ccc(S(=O)(=O)NC2C(=O)c3ccccc3C(=O)C2n2cnc3ccccc32)cc1` (stereo unspecified): the EC50 is greater than 200 µM and the half-inhibitory concentration (IC50) came to 42.7 µM.
For `CSCCC(NC(=O)c1ccccc1C(=O)O)C(=O)O` (stereo unspecified), in that order: greater than 200 µM and greater than 200 µM.
On to `CC1C2(C)OC(=N)C(C#N)(C(c3ccccc3)O2)C1(C#N)C#N` (stereo unspecified), for which the EC50 was greater than 200 µM and the IC50 was determined as 10.7 µM.
In the case of `O=S(=O)(O)c1ccc2c(c1)NN(c1ccc(/C=C/c3ccc(N=Nc4ccc(/C=C/c5ccc(N6Nc7ccc(S(=O)(=O)O)cc7N6)cc5S(=O)(=O)O)c(S(=O)(=O)O)c4)cc3S(=O)(=O)O)c(S(=O)(=O)O)c1)N2`, the concentration giving a half-maximal response (EC50) was 12.3 µM and the IC50 stood at 123 µM.
For `CCOC(=O)C1C2CCC1CC(=NNc1ccc([N+](=O)[O-])cc1[N+](=O)[O-])C2` (stereo unspecified), in that order: greater than 50.1 µM and 19.5 µM.
Regarding `CCOc1cc2c(cc1O)C(=O)C[C@@H]1[C@@H]2CC[C@]2(C)[C@@H](O)CC[C@@H]12`, the EC50 was greater than 2 µM and the IC50 is 0.0794 µM.
As to `Cc1cccc2c(=O)c3c(O)cc(O)cc3n(C)c12`, the EC50 was 145 µM and the IC50 is greater than 200 µM.
Take `[N-]=[N+]=Nc1cc(=O)n(-c2ccccc2)c2ccccc12`: the outcome was inactive.
For `CC(C)c1cc(C(C)C)c(B(c2ccccc2)c2ccccc2)c(C(C)C)c1B(c1ccccc1)c1ccccc1`, the EC50 is greater than 100 µM and the IC50 is greater than 100 µM.
Consider `CSc1ncc(Br)c(Nc2c[nH]c(=O)[nH]c2=O)n1`, for which the EC50 was greater than 200 µM and the IC50 is greater than 200 µM.
With `O=[N+]([O-])c1ccc(Cc2ccccc2)cc1`, the EC50 was greater than 63.1 µM and the IC50 was greater than 63.1 µM.
In the case of `C[S+]1CC2C3CC(C#N)C(C3)C2C1` (stereo unspecified), the EC50 was greater than 275 µM and the half-inhibitory concentration (IC50) is greater than 275 µM.
Turning to `Cc1c([N+](=O)[O-])oc2c1C(=O)N([N+](=O)[O-])CCC2`, the EC50 was greater than 89.1 µM and the half-maximal inhibitory concentration (IC50) is greater than 89.1 µM.
With `Nc1nc(-c2ccco2)cc(-c2ccco2)n1`, the EC50 is greater than 115 µM and the IC50 is greater than 115 µM.
Compound `O=[N+]([O-])c1cc([As](=O)(O)O)ccc1S(=O)(=O)O` came in with a half-maximal effective concentration (EC50) greater than 200 µM and an IC50 greater than 200 µM.
On to `O=C1OC2C(O)OC3COC(=O)c4cc(O)c(O)c(O)c4-c4c(O)c(O)c5oc(=O)c6c(c(O)c(O)c7oc(=O)c4c5c76)-c4c(cc(O)c(O)c4O)C(=O)OC3C2OC(=O)c2cc(O)c(O)c(O)c2-c2c1cc(O)c(O)c2O` (stereo unspecified), for which the EC50 was 0.724 µM and the IC50 is 21.4 µM.
For `COc1ccc2c(c1)C(C)(C)Oc1cc3oc(C(=O)O)cc(=O)c3cc1-2`, in that order: greater than 355 µM and greater than 355 µM.
On to `CC1(C)SCC(COC(=O)c2ccccc2)S1` (stereo unspecified), for which the EC50 is greater than 200 µM and the half-inhibitory concentration (IC50) was greater than 200 µM.
As for `CN(C)C1C(=O)C(C(=O)NCNC(CO)(CO)CO)=C(O)C2(O)C(=O)C3=C(O)c4c(O)cccc4C(C)(O)C3CC12` (stereo unspecified), the EC50 was greater than 200 µM and the IC50 amounted to 132 µM.
In the case of `CCOC(=O)Nc1cc(Nc2ccc(Cl)cc2)c2nc(-c3ccc(Cl)cc3)c(-c3ccc(Cl)cc3)nc2n1`, the EC50 was greater than 37.2 µM and the IC50 was greater than 37.2 µM.
For the compound `CCN(CC)c1ccc2c(C)cc(=O)oc2c1`, the EC50 is greater than 219 µM and the IC50 amounted to 105 µM.
The matching figures for `O/N=C/c1ncccc1C1OCCO1`: greater than 257 µM and 141 µM.
For `CCOP1(=O)CC(C)=C(Cl)C(O)C1` (stereo unspecified), in that order: greater than 200 µM and greater than 200 µM.
As for `CCN(CC)C1CC(O[C@H]2C[C@](O)(C(=O)CO)Cc3c(O)c4c(c(O)c32)C(=O)c2c(OC)cccc2C4=O)OC(C)C1O` (stereo partly specified), the outcome was inactive.
The same measure, in the same setting: under `O=C(O)CCc1coc2ccc(O)cc12` stands “inactive”.
Turning to `CC(C)N(/C(F)=N\C(=O)Nc1ccccc1C(F)(F)F)C(C)C`, the EC50 is greater than 200 µM and the IC50 was 38.9 µM.
The matching figures for `COc1cc2cnc3c4cc(OCc5ccccc5)ccc4ccc3c2cc1OC`: greater than 6.61 µM and greater than 6.61 µM.
As for `CN1CCN(CCSc2nnc(-c3ccc4ccccc4c3)c3ccccc23)CC1`, the EC50 was greater than 219 µM and the IC50 is 12.9 µM.
The matching figures for `CC(C)[Si]1(C(C)C)OCC2OC(n3c(C(=O)c4ccccc4)cc(=O)[nH]c3=O)CC2O[Si](C(C)C)(C(C)C)O1` (stereo unspecified): greater than 200 µM and 9.12 µM.
For `O=C(/C=C/c1cc(O)ccc1O)OCCc1ccccc1`, in that order: greater than 45.7 µM and 6.17 µM.
Consider `NNC(=O)N/N=C1\CN(c2ccc(Cl)cc2Cl)C(=O)C(=O)C1c1nc2ccccc2o1` (stereo unspecified), for which the outcome was inactive.
As for `CCOCc1c(C(=O)NCCO)[n+](=O)c2ccccc2n1[O-]`, the EC50 is greater than 44.7 µM and the IC50 is greater than 44.7 µM.
With `COc1ccc(N2C(=O)C3c4[nH]c5ccc(C)cc5c4C4CCC(C(C)(C)C)CC4C3C2=O)cc1` (stereo unspecified), the concentration giving a half-maximal response (EC50) is 12 µM and the IC50 was 47.9 µM.
As to `CCCCCCCCCCCCNC(=O)NCC(OCC)OCC`, the EC50 is greater than 200 µM and the IC50 is 31.6 µM.
For `CCC[CH2][Sn]1([CH2]CCC)[O]C(=O)C2C(C(=O)[O]1)C1(Cl)C(Cl)=C(Cl)C2(Cl)C1(Cl)Cl` (stereo unspecified), in that order: greater than 200 µM and 0.182 µM.
On to `Cc1ccc(S(=O)(=O)/C(C#N)=C\N2CCNC2=S)cc1`, for which the EC50 is greater than 200 µM and the IC50 was greater than 200 µM.
Turning to `COc1ccc(S(=O)(=O)N/N=C(\C)CN2C(=O)c3ccccc3C2=O)cc1OC`, the EC50 was greater than 437 µM and the IC50 was greater than 437 µM.
On to `O=C1CS(=O)(=O)C(c2cccc(Cl)c2)N1N1C(=O)CS(=O)(=O)C1c1cccc(Cl)c1` (stereo unspecified), for which the EC50 was greater than 200 µM and the IC50 is greater than 200 µM.
Turning to `CC1CC/C(=C\c2ccc(F)cc2)C2=C1C(c1ccc(F)cc1)N1C(=O)CSC1=N2` (stereo unspecified), the EC50 was greater than 200 µM and the IC50 worked out at 75.9 µM.
Consider `[B-]1n2ccc[n+]2[B-]n2ccc[n+]21`, for which the EC50 is greater than 200 µM and the IC50 is greater than 200 µM.
With `O=C1/C(=C/c2ccc([N+](=O)[O-])cc2)CCCc2ccccc21`, the EC50 was greater than 141 µM and the IC50 is greater than 141 µM.
As for `COC(=O)C(=O)C(C(=O)C(=O)Nc1ccccc1[N+](=O)[O-])c1nc2ccc([N+](=O)[O-])cc2[nH]c1=O` (stereo unspecified), the EC50 was greater than 269 µM and the IC50 was determined as 245 µM.
For `C=C(C)C12CC3CC/C(=N/O)C(C1)C3(N1CCOCC1)C/C2=N/O` (stereo unspecified), in that order: greater than 200 µM and greater than 200 µM.
With `N/N=C1/C2CN3CCN(C2)CC1(c1ccc([N+](=O)[O-])cc1)C3`, the EC50 is greater than 200 µM and the IC50 is greater than 200 µM.
With `CC1(C)C2CC(=O)C1(C)C(O)C2Br` (stereo unspecified), the result was inactive.
On to `Cc1nc2ccc3c(ccc4nc(C)c(N=Nc5ccc(C(=N)N)cc5)c(O)c43)c2c(O)c1N=Nc1ccc(C(=N)N)cc1`, for which the EC50 was greater than 200 µM and the IC50 stood at 11 µM.
For `CCC/C(=N\NC(=O)c1cc2ccccc2cc1O)C(CC)C(=O)CCC(=O)N(Cc1ccccc1)Cc1ccccc1` (stereo unspecified), in that order: greater than 44.7 µM and greater than 44.7 µM.

These data come from PubChem BioAssay AID179 (DTP/NCI, 2004).
